Test results reported in patent US4196205A, “3-Acetoxymethyl-7-(iminoacetamido)-cephalosporanic acid derivatives” (priority 1976, dated 1980).
Converted amounts (≈) assume the structure as drawn. Where two headings read alike, the source gives them in different places.

Assays:
Assay in all cases: MIC, dilution in liquid medium
Assay type in all cases: cell-based
[1] = tested on: Streptococcus pyogenes A 561; details: Streptococcus pyogenes, read-out: M.I.C.
Protocol: (§1) The method used was a dilution of a liquid medium where a series of tubes received the same quantity of a sterile nutritive media and increasing doses of the test compounds were placed therein. Then each tube was seeded with a bacterial strain and was incubated for 24 to 48 hours at 37° C. in an oven. The increasing inhibition was determined by transillumination to determine the minimum inhibiting concentration (MIC in […]) and the results are reported in the following Tables.

[2] = tested on: Staphylococcus aureus ATCC 5 638 Pen-Sensible = UC 1061
Protocol: as §1

Enterobacter cloacae 681 = tested on: Enterobacter cloacae 681
Protocol: as §1

Providencia Du 48 = details: Providencia
Protocol: as §1

[3] = tested on: Staphylococcus aureus UC 1 128 Pen-Resistant; details: Staphylococcus aureus
Protocol: as §1

[4] = tested on: Escherichia Coli Resistant Tetracycline ATCC 11 303 = UC 1261; details: Escherichia coli
Protocol: as §1

[5] = tested on: Escherichia Coli Exp. TO26 B6; details: Escherichia coli
Protocol: as §1

[6] = tested on: Escherichia Coli Resistant Gentamicine, Tobramycine R 55 123 D; details: Escherichia coli
Protocol: as §1

[7] = tested on: Bacillus subtilis ATCC 6 633; details: Bacillus subtilis
Protocol: as §1

[8] = tested on: Klebsiella pneumoniae 2 536 Resistant Gentamicine; details: Klebsiella pneumoniae
Protocol: as §1

[9] = tested on: Streptococcus faecalis 5 432
Protocol: as §1

[10] = tested on: Serratia Resistant Gentamicine 2 532
Protocol: as §1

[11] = tested on: Salmonella typhimurium 420; details: Salmonella enterica, TYPHIMURIUM
Protocol: as §1

[12] = tested on: Escherichia Coli Sensible Tetracycline ATCC 9 637 = 1020; details: Escherichia coli
Protocol: as §1

[13] = tested on: Streptococcus faecalis 99 F 74; details: Enterococcus faecalis
Protocol: as §1

[14] = tested on: Proteus mirabilis (indol-) A 235; details: Proteus mirabilis
Protocol: as §1

[15] = tested on: Klebsiella pneumoniae Exp. 52 145; details: Klebsiella pneumoniae
Protocol: as §1

[16] = tested on: Staphylococcus aureus exp. n° 54 146; details: Staphylococcus aureus
Protocol: as §1

[17] = Enterobacter cloacae, 681, 24 h
[18] = Enterobacter cloacae, 681, 48 h
[19] = EXP.52145, 24 h, 24 H, read-out: M.I.C.

Question: What does the source list for `C=CO/N=C(\C(=O)NC1C(=O)N2C(C(=O)O)=C(COC(C)=O)CSC12)c1csc(N)n1` (stereo not drawn) [Product B, syn isomer of 3-acetoxymethyl-7-[2-(2-amino-4-thiazolyl)-2-vinyloxyimino-acetamido]-ceph-3-eme-4-carboxylic acid]?
Answer: MIC ([1]; A561, 24 h, 24 H): ≤ 0.02 µg/mL; MIC ([1]; A561, 48 h, 48 H): ≤ 0.02 µg/mL; MIC ([2]; 24 h): 1 µg/mL (≈ 2.14 µM); MIC ([2]; 48 h): 1 µg/mL (≈ 2.14 µM); MIC (Enterobacter cloacae 681; [17]): 3 µg/mL (≈ 6.42 µM); MIC (Enterobacter cloacae 681; [18]): 5 µg/mL (≈ 10.7 µM); MIC (Providencia Du 48; DU48, 24 h, 24 H): 2 µg/mL (≈ 4.28 µM); MIC (Providencia Du 48; DU48, 48 h, 48 H): 2 µg/mL (≈ 4.28 µM); MIC ([3]; UC1, 24 h, 24 H): 1 µg/mL (≈ 2.14 µM); MIC ([3]; UC1, 48 h, 48 H): 1 µg/mL (≈ 2.14 µM); MIC ([4]; 24 h, read-out: M.I.C.): 0.05 µg/mL (≈ 0.107 µM); MIC ([4]; 48 h, read-out: M.I.C.): 0.95 µg/mL (≈ 2.03 µM); MIC ([5]; 24 h): 0.2 µg/mL (≈ 0.428 µM); MIC ([5]; 48 h): 0.2 µg/mL (≈ 0.428 µM); MIC ([6]; 24 h, read-out: M.I.C.): 0.5 µg/mL (≈ 1.07 µM); MIC ([6]; 48 h, read-out: M.I.C.): 0.5 µg/mL (≈ 1.07 µM); MIC ([7]; ATCC6, 24 h, 24 H): 2 µg/mL (≈ 4.28 µM); MIC ([7]; ATCC6, 48 h, 48 H): 5 µg/mL (≈ 10.7 µM); MIC ([8]; 24 h): 1 µg/mL (≈ 2.14 µM); MIC ([8]; 48 h): 2 µg/mL (≈ 4.28 µM); MIC ([9]; Enterococcus faecalis, 5432, 24 h, 24 H): 3 µg/mL (≈ 6.42 µM); MIC ([9]; Enterococcus faecalis, 5432, 48 h, 48 H): 5 µg/mL (≈ 10.7 µM); MIC ([10]; 24 h): 1 µg/mL (≈ 2.14 µM); MIC ([10]; 48 h): 2 µg/mL (≈ 4.28 µM); MIC ([11]; 24 h, read-out: M.I.C.): 0.5 µg/mL (≈ 1.07 µM); MIC ([11]; 48 h, read-out: M.I.C.): 0.5 µg/mL (≈ 1.07 µM); MIC ([12]; ATCC9, 24 h, 24 H, read-out: M.I.C.): 0.5 µg/mL (≈ 1.07 µM); MIC ([12]; ATCC9, 48 h, 48 H, read-out: M.I.C.): 0.5 µg/mL (≈ 1.07 µM); MIC ([13]; 99F74, 24 h, 24 H): 5 µg/mL (≈ 10.7 µM); MIC ([13]; 99F74, 48 h, read-out: M.I.C.): 10 µg/mL (≈ 21.4 µM); MIC ([14]; 24 h, read-out: M.I.C.): ≤ 0.02 µg/mL; MIC ([14]; 48 h, read-out: M.I.C.): ≤ 0.02 µg/mL; MIC [15, 19]: ≤ 0.02 µg/mL; MIC ([15]; EXP.52145, 48 h, 48 H, read-out: M.I.C.): ≤ 0.02 µg/mL; MIC ([16]; 24 h): 1 µg/mL (≈ 2.14 µM); MIC ([16]; 48 h): 2 µg/mL (≈ 4.28 µM)

Question: Which results are given for `CC(=O)OCC1=C(C(=O)O)N2C(=O)[C@@H](NC(=O)/C(=N/O)c3csc(N)n3)[C@H]2SC1` [3-acetoxymethyl-7-[2-(2amino-4-thiazolyl)-2-hydroxyiminoacetamido]-ceph-3-eme-4-carboxylic acid]?
Answer: MIC ([1]; A561, 24 h, 24 H): 0.5 µg/mL (≈ 1.13 µM); MIC ([1]; A561, 48 h, 48 H): 0.5 µg/mL (≈ 1.13 µM); MIC ([2]; 24 h, UC 1061 Pen-Sensible): 5 µg/mL (≈ 11.3 µM); MIC ([2]; 48 h, UC 1061 Pen-Sensible): 5 µg/mL (≈ 11.3 µM); MIC (Enterobacter cloacae 681; [17]): 40 µg/mL (≈ 90.6 µM); MIC (Enterobacter cloacae 681; [18]): 40 µg/mL (≈ 90.6 µM); MIC ([3]; UC1, 24 h, read-out: M.I.C.): 10 µg/mL (≈ 22.7 µM); MIC ([3]; UC1, 48 h, read-out: M.I.C.): 10 µg/mL (≈ 22.7 µM); MIC ([4]; 24 h): 1 µg/mL (≈ 2.27 µM); MIC ([4]; 48 h): 1 µg/mL (≈ 2.27 µM); MIC ([5]; 24 h): 2 µg/mL (≈ 4.53 µM); MIC ([5]; 48 h): 2 µg/mL (≈ 4.53 µM); MIC ([6]; 24 h): 5 µg/mL (≈ 11.3 µM); MIC ([6]; 48 h, RG R55 123D, read-out: M.I.C.): 10 µg/mL (≈ 22.7 µM); MIC ([7]; ATCC6, 24 h, 24 H): 2 µg/mL (≈ 4.53 µM); MIC ([7]; ATCC6, 48 h, 48 H): 5 µg/mL (≈ 11.3 µM); MIC ([8]; 24 h): 20 µg/mL (≈ 45.3 µM); MIC ([8]; 48 h): 40 µg/mL (≈ 90.6 µM); MIC ([11]; 24 h): 2 µg/mL (≈ 4.53 µM); MIC ([11]; 48 h): 2 µg/mL (≈ 4.53 µM); MIC ([12]; ATCC 9 / UC1020, 24 h, 24 H, ST UC 1020): 3 µg/mL (≈ 6.8 µM); MIC ([12]; ATCC 9 / UC1020, 48 h, 48 H, ST UC 1020): 3 µg/mL (≈ 6.8 µM); MIC ([14]; 24 h): 2 µg/mL (≈ 4.53 µM); MIC ([14]; 48 h): 2 µg/mL (≈ 4.53 µM); MIC [15, 19]: 0.6 µg/mL (≈ 1.36 µM); MIC ([15]; EXP.52145, 48 h, 48 H): 0.6 µg/mL (≈ 1.36 µM); MIC ([16]; 24 h): 5 µg/mL (≈ 11.3 µM); MIC ([16]; 48 h, read-out: M.I.C.): 10 µg/mL (≈ 22.7 µM)
